The format of series [1] is physicochemical. As to the method:
The thermal stability of azithromycin at 40° C. is measured in 50 mM phosphate buffer adjusted to the pH values indicated in FIG. 2. FIG. 3 is a secondary plot of data derived from the azithromycin stability profiles in FIG. 2. […] 6-6.5. A formulation pH of 6.3 is preferred to minimize degradation of azithromycin in aqueous formulations including those that employ DuraSite®.

Series [2] is classed as physicochemical. An excerpt: Ophthalmic carrier(s) is used in a broad sense and includes any material or composition that can contain and release the azalide antibiotic and that is compatible with the eye. Typically the ophthalmically acceptable carrier is water or an aqueous solution or suspension, but also includes oils such as those used to make ointments and polymer matrices such as used in ocular inserts. […] The stabilized compositions of this invention advantageously employ the increased water solubility of the protonated form of the antibiotic that is compatible with the optimal pH range for azalide antibiotic stability. […] Accordingly, stabilized aqueous solution of an azalide antibiotic can be formed and used for topical application. Alternatively, aqueous compositions containing a portion of the azalide antibiotic in suspension may be employed for topical administration. Ointments and solid dosage forms can also be used as delivery compositions as are well known in the art. The concentration of azalide antibiotic present in the ophthalmic composition depends upon the dosage form, the release rate, the dosing regimen, and the location and type of infection. […]
The solubility of azithromycin is measured as a function of pH in 0.2 M citric acid buffer over the range of pH 5.91 to 9.0.
The source holds these as a separate data set.

Consider `CCC1OC(=O)C(C)C(OC2CC(C)(OC)C(O)C(C)O2)C(C)C(OC2OC(C)CC(N(C)C)C2O)C(C)(O)CC(C)CN(C)C(C)C(O)C1(C)O` (stereo not drawn) [Azithromycin, N-methyl-11-aza-10-deoxo-10-dihydroerythromycin], for which, in series [1], the “pH interval of maximum stability” value was 5.0-7.0 and the “pH of stability maximum” value is on record as “about 6.3”.

Take `CC[C@H]1OC(=O)[C@H](C)[C@@H](O[C@H]2C[C@@](C)(OC)[C@@H](O)[C@H](C)O2)[C@H](C)[C@@H](O[C@@H]2O[C@H](C)C[C@H](N(C)C)[C@H]2O)[C@](C)(O)C[C@@H](C)CN(C)[C@H](C)[C@@H](O)[C@]1(C)O.O.O` [azithromycin dihydrate]: in series [2], the water solubility is 200 to 250 mg/mL.

(Values after patent US7056893B2, “Topical treatment for prevention of ocular infections” (Insite Vision, Inc., priority 1999, dated 2006).)
